Laboratory results as given in paper PMC8175851, “Effects of Genetic Polymorphism in CYP2D6, CYP2C19, and the Organic Cation Transporter OCT1 on Amitriptyline Pharmacokinetics in Healthy Volunteers and Depressive Disorder Patients” (Frontiers in Pharmacology, 2021).
Where two headings read alike, the source gives them in different places.

Assay: Pharmacokinetics of AT and NT in healthy volunteers after a single dose of 25 mg amitriptyline
Type: in vivo, human
Conditions: human, plasma, po, 25 mg, single oral 25 mg AT; for Cmax: read-out: Cmax
From the text: In order to enrich the study sample with the less frequent functionally deficient OCT1 variants, participants were selected based on OCT1 genotype from an internal database at the Institute of Clinical Pharmacology of the University Medical Center Göttingen. All volunteers who are listed in the internal database had agreed to it and the database was approved by the ethics committee of the University of Göttingen. […] Additional subjects with heterozygous genotypes were included to provide a better understanding of the effects of specific variants and the mode of inheritance. All volunteers gave their written informed consent before participation in the study. The study was approved by the ethics committee of the University of Göttingen and the German Federal Institute for Drugs and Medical Devices (BfArM). It was registered at the clinical trials databases Clinicaltrials.gov (NCT02054299) and EudraCT (number 2012-003546-33). […] Volunteers who underwent regular drug treatments other than oral contraceptives or who suffered from any relevant chronic illness, as well as pregnant or lactating women, were not included. All subjects were healthy according to a detailed medical history, medical examination, electrocardiogram, urine status and clinical chemistry, and haematology parameters (sodium, potassium, total bilirubin, aspartate aminotransferase, alanine-aminotransferase, creatinine, C-reactive protein, thyroid-stimulating hormone, haemoglobin, erythrocyte, thrombocyte, and leucocyte counts). […] After centrifugation (13,000 rpm, 15 min, room temperature), two-thirds of the supernatant were transferred to a new reaction tube and evaporated at 40°C under nitrogen flow. The residue was reconstituted under shaking in 0.1% methanoic acid and briefly centrifuged before quantification using a Nexera UHPLC system (Shimadzu, Kyoto, Japan) coupled to an API 4000 tandem mass spectrometer (AB Sciex, Darmstadt, Germany). […] PerkinElmer, Rodgau, Germany) with a Phenomenex C18 pre-column (4 × 2 mm, Phenomenex, Aschaffenburg, Germany). […] The lower limit of quantification was 0.5 ng/ml for AT and 0.1 ng/ml for NT. […] The mass spectrometry detection parameters are listed in Supplementary Table S1. For the study in healthy volunteers, the primary endpoints were the AUCs of plasma AT and NT concentrations. Secondary endpoints were the other pharmacokinetic parameters of AT and NT, as well as heart rate, blood pressure, pupil size effects, and possible adverse events (headache, fatigue, visual or hearing impairments, restlessness, nausea, dizziness, dry mouth, tremor, as well as sensations of hypothermia and heart palpitations determined using a visual analogue scale test). Pharmacokinetic parameters were calculated by non-compartmental analysis using Phoenix 64 WinNonlin version 6.3 (Certara Inc., Princeton, NJ, United States). AUCinf of AT was calculated from the time of dosing using the linear/log trapezoidal rule and extrapolated to infinity based on the last predicted concentration and using the terminal elimination rate constant (lambda z). AUC of NT was calculated from the time of dosing until the last measurement at 48 h using the linear/log trapezoidal rule, as a decline in NT concentrations was not observed in some subjects and extrapolation to infinity thus not possible.

[1] = both sexes, healthy volunteers, 0 active OCT1 alleles (n = 12)
[2] = both sexes, healthy volunteers, 1 active OCT1 allele (n = 9)
[3] = both sexes, healthy volunteers, 2 active OCT1 alleles (n = 14)
[4] = both sexes, healthy volunteers, CYP2C19 activity score 1 (n = 5), mean
[5] = both sexes, healthy volunteers, CYP2C19 activity score 1.5 (n = 2), mean
[6] = both sexes, healthy volunteers, CYP2C19 activity score 2 (n = 16), mean
[7] = both sexes, healthy volunteers, CYP2C19 activity score 2.5 (n = 10), mean
[8] = both sexes, healthy volunteers, CYP2D6 activity 0 (n = 3), mean
[9] = both sexes, healthy volunteers, CYP2D6 activity 0.5 (n = 2), mean
[10] = both sexes, healthy volunteers, CYP2D6 activity 1 (n = 10), mean
[11] = both sexes, healthy volunteers, CYP2D6 activity 1.5 (n = 6), mean
[12] = both sexes, healthy volunteers, CYP2D6 activity 2 (n = 11), mean
[13] = both sexes, healthy volunteers, CYP2D6 activity 2.5 (n = 1), mean
[14] = both sexes, healthy volunteers, CYP2D6 activity 3 (n = 2), mean
[15] = healthy volunteers, CYP2C19 activity score 0 (n = 1), mean
[16] = healthy volunteers, CYP2C19 activity score 3 (n = 1), mean

Work on `CNCCC=C1c2ccccc2CCc2ccccc21` [Nortriptyline, nortriptyline] yielded an AUC(0-t) (both sexes, 35 healthy volunteers, read-out: AUC48h (range over all volunteers)) of 0.0393 to 0.284 µg·h/mL, an AUC(0-t) (both sexes, healthy volunteers, 0 active OCT1 alleles (n = 12), read-out: AUC48h) of 0.0902 ± 0.0271 µg·h/mL and a Cmax [1] of 2.7 ± 0.7 ng/mL. It also gave an AUC(0-t) (both sexes, healthy volunteers, 1 active OCT1 allele (n = 9), read-out: AUC48h) of 0.0883 ± 0.0322 µg·h/mL, a Cmax [2] of 2.6 ± 0.9 ng/mL and an AUC(0-t) (both sexes, healthy volunteers, 2 active OCT1 alleles (n = 14), read-out: AUC48h) of 0.126 ± 0.0635 µg·h/mL. The Cmax [3] was 3.4 ± 1.4 ng/mL, the AUC(0-t) (both sexes, healthy volunteers, CYP2C19 activity score 1 (n = 5), mean, read-out: AUC48h) was 0.0694 µg·h/mL and the Cmax [4] was 2.1 ng/mL. For the same compound, the AUC(0-t) (both sexes, healthy volunteers, CYP2C19 activity score 1.5 (n = 2), mean, read-out: AUC48h) was 0.123 µg·h/mL, the Cmax [5] was 3.5 ng/mL and the AUC(0-t) (both sexes, healthy volunteers, CYP2C19 activity score 2 (n = 16), mean, read-out: AUC48h) was 0.103 µg·h/mL. For the same compound, the Cmax [6] was 3 ng/mL, the AUC(0-t) (both sexes, healthy volunteers, CYP2C19 activity score 2.5 (n = 10), mean, read-out: AUC48h) was 0.108 µg·h/mL and the Cmax [7] was 3.1 ng/mL. The AUC(0-t) (both sexes, healthy volunteers, CYP2D6 activity 0 (n = 3), mean, read-out: AUC48h) was 0.145 µg·h/mL, the Cmax [8] was 3.48 ng/mL and the AUC(0-t) (both sexes, healthy volunteers, CYP2D6 activity 0.5 (n = 2), mean, read-out: AUC48h) was 0.222 µg·h/mL. It also gave a Cmax [9] of 5.54 ng/mL, an AUC(0-t) (both sexes, healthy volunteers, CYP2D6 activity 1 (n = 10), mean, read-out: AUC48h) of 0.104 µg·h/mL and a Cmax [10] of 2.94 ng/mL. For the same compound, the AUC(0-t) (both sexes, healthy volunteers, CYP2D6 activity 1.5 (n = 6), mean, read-out: AUC48h) was 0.0983 µg·h/mL, the Cmax [11] was 2.79 ng/mL and the AUC(0-t) (both sexes, healthy volunteers, CYP2D6 activity 2 (n = 11), mean, read-out: AUC48h) was 0.0818 µg·h/mL. For the same compound, the Cmax [12] was 2.57 ng/mL, the AUC(0-t) (both sexes, healthy volunteers, CYP2D6 activity 2.5 (n = 1), mean, read-out: AUC48h) was 0.0891 µg·h/mL and the Cmax [13] was 3.11 ng/mL. The AUC(0-t) (both sexes, healthy volunteers, CYP2D6 activity 3 (n = 2), mean, read-out: AUC48h) was 0.0711 µg·h/mL, the Cmax [14] was 2.49 ng/mL and the Tmax [1] was 6.2 ± 1.4 h. It also gave a half-life [1] of 46.1 ± 24.4 h, a Tmax [2] of 6.7 ± 1.3 h and a half-life [2] of 56.4 ± 31.3 h. It also gave a Tmax [3] of 11.5 ± 8.7 h, a half-life [3] of 40.1 ± 38.2 h and a Tmax [4] of 6 h. It also gave a half-life [4] of 48.2 h, a Tmax [5] of 14.1 h and a half-life [5] of 25.1 h. It also gave a Tmax [6] of 6.6 h, a half-life [6] of 47.7 h and a Tmax [7] of 9.9 h. It also gave a half-life [7] of 44.1 h, a Tmax [8] of 18.9 h and a half-life [8] of 92 h. For the same compound, the Tmax [9] was 15.5 h, the half-life [9] was 105 h and the Tmax [10] was 6.2 h. The half-life [10] was 64.2 h, the Tmax [11] was 7 h and the half-life [11] was 51.9 h. The Tmax [12] was 7.7 h, the half-life [12] was 29.9 h and the Tmax [13] was 6 h. It also gave a half-life [13] of 25 h, a Tmax [14] of 6 h and a half-life [14] of 26.9 h. The AUC(0-t) (both sexes, healthy volunteers, OCT1 genotype *1 / *1 (n 14), mean ± standard deviation, read-out: AUC48h) was 0.126 ± 0.063 µg·h/mL, the AUC(0-t) (both sexes, healthy volunteers, OCT1 genotype *1 / *2 (n 3), mean ± standard deviation, read-out: AUC48h) was 0.115 ± 0.024 µg·h/mL and the AUC(0-t) (both sexes, healthy volunteers, OCT1 genotype *1 / *3 (n 4), mean ± standard deviation, read-out: AUC48h) was 0.078 ± 0.034 µg·h/mL. The AUC(0-t) (both sexes, healthy volunteers, OCT1 genotype *1 / *4 (n 2), mean ± standard deviation, read-out: AUC48h) was 0.069 ± 0.017 µg·h/mL, the AUC(0-t) (both sexes, healthy volunteers, OCT1 genotype *2 / *2 (n 3), mean ± standard deviation, read-out: AUC48h) was 0.109 ± 0.045 µg·h/mL and the AUC(0-t) (both sexes, healthy volunteers, OCT1 genotype *2 / *3 (n 4), mean ± standard deviation, read-out: AUC48h) was 0.09 ± 0.027 µg·h/mL. It also gave an AUC(0-t) (both sexes, healthy volunteers, OCT1 genotype *2 / *5 (n 1), read-out: AUC48h) of 0.083 µg·h/mL, an AUC(0-t) (both sexes, healthy volunteers, OCT1 genotype *3 / *3 (n 3), mean ± standard deviation, read-out: AUC48h) of 0.077 ± 0.011 µg·h/mL and an AUC(0-t) (both sexes, healthy volunteers, OCT1 genotype *3 / *4 (n 1), read-out: AUC48h) of 0.078 µg·h/mL. For the same compound, the AUC(0-t) (healthy volunteers, CYP2C19 activity score 0 (n = 1), mean, read-out: AUC48h) was 0.0393 µg·h/mL, the Cmax [15] was 1.05 ng/mL and the AUC(0-t) (healthy volunteers, CYP2C19 activity score 3 (n = 1), mean, read-out: AUC48h) was 0.284 µg·h/mL. For the same compound, the Cmax [16] was 6.5 ng/mL, the Tmax [15] was 6 h and the half-life [15] was 106 h. For the same compound, the Tmax [16] was 24.9 h and the half-life [16] was 145 h.
